Measured values as given in patent US20100240683A1, “COMBINATION THERAPY, COMPOSITION AND METHODS FOR THE TREATMENT OF CARDIOVASCULAR DISORDERS” (Syndromex Ltd., priority 2007, published 2010).
Entries after “also recorded” stand apart in the source; their conditions may differ. Read-outs that look alike come from different tables or passages of the source. Values belong to the compound of their own block, whether it stands above or below them.

Key:
Guinea pigs = test: Hypolipidemic effect in Guinea pigs model (plasma TG, cholesterol, lipoproteins); format: in vivo, Guinea pig; conditions: for effect on plasma cholesterol / effect on plasma triglycerides (TG): gavage, days 21 and 22, result in words
Experimental: • Guinea pigs (400-500 g) were obtained from Harlan (Israel) or Harlan (Netherlands). Animals were treated by gavage with Medica 16αα, Medica 16ββ and Simvastatin as indicated in 1% CMC for the specified treatment periods. During treatment period the animals were weighed and observed daily.
Non-fasted guinea pigs were anesthetized with ketamine (75 mg/kg body weight) and xylazine (6 mg/kg body weight), followed by S.C. abdominal injections of 2% lignocaine. Anesthetized animals were bled into tubes containing EDTA. Plasma chylomicrons were removed by centrifugation (20 min, 30K rpm, TST 55.5 rotor). Plasma TG was assayed by Roche/Hitachi kit. Plasma cholesterol was assayed by Roche Diagnostic's kit.
Chylomicrons-free plasma was subjected to continuous KBr-gradient centrifugation (24 h, 40K rpm, SW41 rotor), followed by fractionating gradient tubes into 0.5 ml fractions. TG, cholesterol and protein of each fraction were measured as described above. […]
Guinea pigs were treated by gavage with M16αα, M16ββ or with Simvastatin, weighed and observed daily. Plasma triglycerides (TG) and cholesterol, as well as plasma lipoproteins and their composition were examined on days 21 and 22 (as specified in the following tables) of the experiments, as described in Experimental procedures. As clearly shown by Table 3 and FIG. 1, treatment with M16αα decreases plasma triglycerides (TG).

CYP2C19 [1] = target: T1, CYP2C19 (Homo sapiens, UniProt P33261); test: in vitro
CYP3A4 = CYP3A4 (Homo sapiens, UniProt P08684)
CYP2B6 [2] = target: T2, CYP2B6 (Homo sapiens, UniProt P20813); test: Fluorimetric CYP inhibition assay, CYP2B6-EFC
T2 sequence (P20813 1-491): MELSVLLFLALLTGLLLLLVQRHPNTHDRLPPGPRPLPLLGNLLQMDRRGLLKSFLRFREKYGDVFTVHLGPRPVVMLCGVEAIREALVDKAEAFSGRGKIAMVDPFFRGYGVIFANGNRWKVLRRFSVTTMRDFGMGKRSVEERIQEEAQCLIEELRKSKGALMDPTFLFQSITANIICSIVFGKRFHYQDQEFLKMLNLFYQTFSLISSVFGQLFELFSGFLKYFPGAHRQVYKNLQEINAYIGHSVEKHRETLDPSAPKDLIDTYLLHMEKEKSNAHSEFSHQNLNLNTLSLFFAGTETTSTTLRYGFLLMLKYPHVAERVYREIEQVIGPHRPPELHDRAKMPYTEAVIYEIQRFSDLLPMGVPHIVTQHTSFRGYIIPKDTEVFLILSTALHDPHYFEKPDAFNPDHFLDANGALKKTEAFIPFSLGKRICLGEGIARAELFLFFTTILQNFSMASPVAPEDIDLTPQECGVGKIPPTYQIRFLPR

CYP1A2 = target: T3, CYP1A2 (Homo sapiens, UniProt P05177); test: Fluorimetric CYP inhibition assay, CYP1A2-CEC
T3 sequence (P05177 1-516): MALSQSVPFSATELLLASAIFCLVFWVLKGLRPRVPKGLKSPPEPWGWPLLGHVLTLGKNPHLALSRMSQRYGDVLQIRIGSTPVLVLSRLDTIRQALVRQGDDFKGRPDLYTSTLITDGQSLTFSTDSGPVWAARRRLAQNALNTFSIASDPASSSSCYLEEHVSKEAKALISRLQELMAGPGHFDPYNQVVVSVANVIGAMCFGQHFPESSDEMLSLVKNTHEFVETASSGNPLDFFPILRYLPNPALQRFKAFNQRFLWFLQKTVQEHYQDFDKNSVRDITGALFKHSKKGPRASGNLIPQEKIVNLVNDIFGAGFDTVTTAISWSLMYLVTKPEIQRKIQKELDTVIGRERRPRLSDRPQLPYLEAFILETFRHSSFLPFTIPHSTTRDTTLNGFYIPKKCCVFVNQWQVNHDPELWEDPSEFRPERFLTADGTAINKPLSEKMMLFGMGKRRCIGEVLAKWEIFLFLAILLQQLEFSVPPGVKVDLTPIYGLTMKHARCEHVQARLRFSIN

CYP2B6 [3] = target: T2, CYP2B6; test: in vitro
CYP2C19 [4] = target: T1, CYP2C19; test: Fluorimetric CYP inhibition assay, CYP2C19-CEC
[5] = system: dyslipidemic non-diabetic patients; test: Hypolipidemic effect of M16ββ in dyslipidemic non-diabetic patients; format: in vivo, human; conditions: p.o. 200 mg/day to 800 mg/day
Experimental: Eight dyslipidemic non-diabetic patients were subjected to 4-5 weeks maintenance period on placebo followed by a period of 3-5 months of treatment p.o. with increasing M16ββ doses ranging from 200 mg/day to 800 mg/day.

healthy male volunteers = test: Evaluation of safety clinical and laboratory parameters in healthy male volunteers; format: in vivo, human; conditions: 1 to 4 weeks, varying doses, during treatment and one month after
Experimental: Fifteen healthy male volunteers aged 25-52 were treated for periods ranging from 1 to 4 weeks with varying doses of M16ββ.

[6] = gavage 10 mg/kgbw, 21 days, n = 12
[7] = gavage 24 mg/kg/bw, 22 days, n = 10

Sequence of CYP3A4 (P08684 whole entry): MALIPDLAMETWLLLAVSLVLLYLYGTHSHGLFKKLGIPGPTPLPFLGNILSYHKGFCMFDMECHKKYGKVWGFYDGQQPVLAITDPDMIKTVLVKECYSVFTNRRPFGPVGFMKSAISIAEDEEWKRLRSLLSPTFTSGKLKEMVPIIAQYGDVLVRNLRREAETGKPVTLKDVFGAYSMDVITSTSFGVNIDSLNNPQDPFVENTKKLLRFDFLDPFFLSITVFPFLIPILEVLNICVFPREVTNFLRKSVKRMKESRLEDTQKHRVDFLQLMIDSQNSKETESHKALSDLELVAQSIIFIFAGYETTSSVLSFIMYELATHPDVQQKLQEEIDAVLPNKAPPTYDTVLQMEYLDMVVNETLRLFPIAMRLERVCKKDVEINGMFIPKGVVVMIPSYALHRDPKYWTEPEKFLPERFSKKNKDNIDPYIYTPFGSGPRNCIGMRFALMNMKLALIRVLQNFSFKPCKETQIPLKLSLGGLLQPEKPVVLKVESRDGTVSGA
T1 sequence (P33261 whole entry): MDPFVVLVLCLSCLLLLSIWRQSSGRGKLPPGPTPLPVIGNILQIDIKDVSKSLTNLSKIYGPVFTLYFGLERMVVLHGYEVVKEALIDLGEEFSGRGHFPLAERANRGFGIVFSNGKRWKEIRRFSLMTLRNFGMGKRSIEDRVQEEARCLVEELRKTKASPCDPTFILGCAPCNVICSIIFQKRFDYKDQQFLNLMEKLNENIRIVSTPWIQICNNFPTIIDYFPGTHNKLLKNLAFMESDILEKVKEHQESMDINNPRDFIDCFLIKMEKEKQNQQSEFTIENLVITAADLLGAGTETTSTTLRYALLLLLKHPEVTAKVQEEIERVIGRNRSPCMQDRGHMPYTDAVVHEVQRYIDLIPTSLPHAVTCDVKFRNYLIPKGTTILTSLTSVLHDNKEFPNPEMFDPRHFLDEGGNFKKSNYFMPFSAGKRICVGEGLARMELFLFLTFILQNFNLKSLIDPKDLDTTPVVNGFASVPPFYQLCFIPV

Weight gain (Guinea pigs; [6]): 201 ± 8 g
inhibition at 0.05 μM (CYP2C19 [1]; % Inhibition (set 1)): 0%
inhibition at 0.41 μM (CYP2C19 [1]; % Inhibition (set 1)): 0%
inhibition at 1.23 μM (CYP2C19 [1]; % Inhibition (set 1)): 0%
inhibition at 3.7 μM (CYP2C19 [1]; % Inhibition (set 1)): 0%
inhibition at 11.11 μM (CYP2C19 [1]; % Inhibition (set 1)): 3%
inhibition at 33.33 μM (CYP2C19 [1]; % Inhibition (set 1)): 57%
inhibition at 100 μM (CYP2C19 [1]; % Inhibition (set 1)): 63%
inhibition at 0.05 μM (CYP2C19 [1]; % Inhibition (set 2)): 1%
inhibition at 0.41 μM (CYP2C19 [1]; % Inhibition (set 2)): 2%
inhibition at 1.23 μM (CYP2C19 [1]; % Inhibition (set 2)): 4%
inhibition at 3.7 μM (CYP2C19 [1]; % Inhibition (set 2)): 4%
inhibition at 11.11 μM (CYP2C19 [1]; % Inhibition (set 2)): 12%
inhibition at 33.33 μM (CYP2C19 [1]; % Inhibition (set 2)): 43%
inhibition at 100 μM (CYP2C19 [1]; % Inhibition (set 2)): 70%
% Inhibition (set 1) (CYP3A4; 0.05 μM): 5%
% Inhibition (set 2) (CYP3A4; 0.05 μM): 1%
% Inhibition (set 1) (CYP3A4; 3.7 μM): 1%
% Inhibition (set 1) (CYP3A4; 33.33 μM): 4%
IC50 (CYP2B6 [2]): > 100 µM
IC50 (CYP1A2): > 100 µM
inhibition at 0.05 μM (CYP2B6 [3]; % Inhibition (set 1)): 0%
inhibition at 0.41 μM (CYP2B6 [3]; % Inhibition (set 1)): 7%
inhibition at 1.23 μM (CYP2B6 [3]; % Inhibition (set 1)): 4%
inhibition at 3.7 μM (CYP2B6 [3]; % Inhibition (set 1)): 29%
inhibition at 11.11 μM (CYP2B6 [3]; % Inhibition (set 1)): 8%
inhibition at 33.33 μM (CYP2B6 [3]; % Inhibition (set 1)): 17%
inhibition at 100 μM (CYP2B6 [3]; % Inhibition (set 1)): 27%
inhibition at 0.05 μM (CYP2B6 [3]; % Inhibition (set 2)): 2%
inhibition at 0.41 μM (CYP2B6 [3]; % Inhibition (set 2)): 0%
inhibition at 1.23 μM (CYP2B6 [3]; % Inhibition (set 2)): 3%
inhibition at 3.7 μM (CYP2B6 [3]; % Inhibition (set 2)): 2%
inhibition at 11.11 μM (CYP2B6 [3]; % Inhibition (set 2)): 8%
inhibition at 33.33 μM (CYP2B6 [3]; % Inhibition (set 2)): 12%
inhibition at 100 μM (CYP2B6 [3]; % Inhibition (set 2)): 28%
IC50 (CYP2C19 [4]): 46 µM
SMILES: CC(C)(CCCCCCCCCCCCC(C)(C)C(=O)O)C(=O)O [M16αα, 2,2,15,15-tetramethylhexadecane-1,16-dioic acid]
Liver/body weight % (Guinea pigs; [6]): 6.3 ± 0.1%
effect on plasma cholesterol (Guinea pigs): pronounced decrease
effect on plasma triglycerides (TG) (Guinea pigs): reduces; also recorded: decreases
effect on LDL-cholesterol levels (Guinea pigs; lipoprotein profile, FIG. 2, result in words): reduces

Weight gain (Guinea pigs; [7]): 173 ± 8.5 g
inhibition at 0.05 μM (CYP2C19 [1]; % Inhibition (set 1)): 0%
inhibition at 0.41 μM (CYP2C19 [1]; % Inhibition (set 1)): 5%
inhibition at 1.23 μM (CYP2C19 [1]; % Inhibition (set 1)): 4%
inhibition at 3.7 μM (CYP2C19 [1]; % Inhibition (set 1)): 0%
inhibition at 11.11 μM (CYP2C19 [1]; % Inhibition (set 1)): 0%
inhibition at 33.33 μM (CYP2C19 [1]; % Inhibition (set 1)): 1%
inhibition at 100 μM (CYP2C19 [1]; % Inhibition (set 1)): 21%
inhibition at 0.05 μM (CYP2C19 [1]; % Inhibition (set 2)): 0%
inhibition at 0.41 μM (CYP2C19 [1]; % Inhibition (set 2)): 1%
inhibition at 1.23 μM (CYP2C19 [1]; % Inhibition (set 2)): 0%
inhibition at 3.7 μM (CYP2C19 [1]; % Inhibition (set 2)): 0%
inhibition at 11.11 μM (CYP2C19 [1]; % Inhibition (set 2)): 0%
inhibition at 33.33 μM (CYP2C19 [1]; % Inhibition (set 2)): 1%
inhibition at 100 μM (CYP2C19 [1]; % Inhibition (set 2)): 7%
% Inhibition (set 2) (CYP3A4; 1.23 μM): 12%
% Inhibition (set 2) (CYP3A4; 3.7 μM): 2%
IC50 (CYP2B6 [2]): > 100 µM
IC50 (CYP1A2): > 100 µM
inhibition at 0.05 μM (CYP2B6 [3]; % Inhibition (set 1)): 1%
inhibition at 0.41 μM (CYP2B6 [3]; % Inhibition (set 1)): 1%
inhibition at 1.23 μM (CYP2B6 [3]; % Inhibition (set 1)): 4%
inhibition at 3.7 μM (CYP2B6 [3]; % Inhibition (set 1)): 0%
inhibition at 11.11 μM (CYP2B6 [3]; % Inhibition (set 1)): 5%
inhibition at 33.33 μM (CYP2B6 [3]; % Inhibition (set 1)): 7%
inhibition at 100 μM (CYP2B6 [3]; % Inhibition (set 1)): 20%
inhibition at 0.05 μM (CYP2B6 [3]; % Inhibition (set 2)): 0%
inhibition at 0.41 μM (CYP2B6 [3]; % Inhibition (set 2)): 0%
inhibition at 1.23 μM (CYP2B6 [3]; % Inhibition (set 2)): 4%
inhibition at 3.7 μM (CYP2B6 [3]; % Inhibition (set 2)): 0%
inhibition at 11.11 μM (CYP2B6 [3]; % Inhibition (set 2)): 6%
inhibition at 33.33 μM (CYP2B6 [3]; % Inhibition (set 2)): 7%
inhibition at 100 μM (CYP2B6 [3]; % Inhibition (set 2)): 19%
IC50 (CYP2C19 [4]): > 100 µM
SMILES: CC(C)(CCCCCCCCCCC(C)(C)CC(=O)O)CC(=O)O [M16ββ, 3,3,14,14-tetramethylhexadecane-1,16-dioic acid]
time into treatment at which hypolipidemic effect was observed [5]: less than 1 month
Plasma LDL-C ([5]; 3-5 months): remained unaffected
decrease in plasma triglycerides (mean) ([5]; 3-5 months): 55%
increase in HDL-C ([5]; 3-5 months): 13%
plasma fibrinogen ([5]; 3-5 months): decrease
tolerability ([5]; 3-5 months): well tolerated in all dosages
Liver/body weight % (Guinea pigs; [7]): 5.8 ± 0.2%
Plasma cholesterol (Guinea pigs; [7]): 31 ± 2.2 mg %
effect on plasma cholesterol (Guinea pigs): small but significant decrease
effect on plasma triglycerides (TG) (Guinea pigs): clear decrease
drug-related changes in safety clinical (body weight, blood pressure, pulse, ECG) and laboratory (hematology, blood chemistry, urinary analysis) parameters (healthy male volunteers): no drug-related changes were detected
